Experimental data as given in US20150158956A1, “MULTIVALENT ANTIVIRAL COMPOSITIONS, METHODS OF MAKING, AND USES THEREOF” (The Charles Stark Draper Laboratory, Inc., priority 2013, published 2015).

Key:
RSV strain A2 = experiment: RSV plaque assay on Vero cell monolayers, sample pre-mixed with RSV strain A2 (Example 7); assay type: cell-based, respiratory syncytial virus; conditions: in solution; Vero cells; 200 PFU RSV strain A2, 30 min at 37° C. pre-mix; read-out: concentration achieving a 50% reduction in RSV infectivity
Procedure: The ability of liposomes to block RSV infection of Vero cells was examined. The blocking ability of liposomes was compared to purified sulfated octasaccharide, in solution, and a control, i.e., a liposome without sulfated octasaccharides. Liposomes were prepared using the method described in Example 3. […] Purified sulfated octasaccharide as described in Example 1, in solution or incorporated into liposomes, at the concentrations indicated were assessed using a plaque assay. Confluent Vero cell monolayers were formed by adding 1×10^6 Vero cells to wells of a 12-well plate then incubating the cells in 1 ml Dulbecco's Modified Eagle Medium (DMEM) with 4 mM glutamine and 10% fetal bovine serum as growth medium. The medium was removed from the cells. Sulfated octasaccharide, liposomes, or buffer at the concentrations indicated (see FIG. 5) were mixed with 200 PFU RSV strain A2 in 150 mM phosphate buffered saline for 30 min at 37° C. and the mixture was added to the monolayer surface. After one hour, the mixtures were removed, and the cells were washed and overlaid with 1 ml plaquing medium (DMEM with 4 mM glutamine, 2% FBS, and 0.4% agarose). After 5 to 7 days incubation at 37° C., the number of RSV plaques was counted. Liposome treated virus was compared to untreated virus, which represented 100% infectivity.

[1] = system: respiratory syncytial virus (RSV); experiment: RSV plaque (PFU) assay, sample added to Vero cells simultaneously with RSV (Example 6); assay type: cell-based
Procedure: The ability of purified sulfated octasaccharide, in solution, to block respiratory syncytial virus (RSV) infection of Vero cells was examined. The blocking ability of purified sulfated octasaccharide was compared to heparin sodium.
Purified sulfated octasaccharide was prepared according to the method of Example 1. Vero cells were seeded into 24-well plates and incubated at 37° C. for 24 hours to form monolayers. Samples were diluted to the desired concentration in sterile DMEM in a final volume of 225 μl. Full-length heparin sodium (the starting material) or purified HSocta was added to Vero cells simultaneously with RSV that was diluted to 300 PFU/mL then incubated at 37° C. for 30 min. Vero cells were washed with PBS and samples were incubated at 37° C. for 1 hour on Vero cells and then washed with PBS and incubated with DMEM containing 10% FBS and incubated at 37° C. for 72 h. Cells were fixed and stained with anti-glycoprotein F and anti-glycoprotein G antibodies (MAB858-2 and MAB8262F Millipore, Billerica, Mass.). Plaques were visualized with anti-mouse horseradish peroxidase-conjugated secondary antibody (BD Biosciences, San Jose, Calif.) and developed with peroxidase substrate kit (Vector Laboratories, Burlingame, Calif.). Viral plaques in the Vero monolayer were counted and the PFU/mL was determined.

**Q.** “GlcUA(2S)-GlcNS(6S)-Ido(2S)-GlcNS(6S)-Ido(2S)-GlcNS(6S)-Ido(2S)-GlcNS(6S) [purified sulfated octasaccharide]” was tested. Which IC50 (RSV strain A2) did it give?
**A.** ~500 µM

**Q.** And the “blocking PFU formation” value ([1]; at 1 μg/ml or higher, RSV, Vero cells (results text says MDCK cells))?
**A.** roughly 50%

**Q.** What about the “anti-RSV properties, ability to block infection of cells” value ([1]; in solution, results text says MDCK cells) of the same substance?
**A.** strong anti-RSV properties
